Data set [1] relates to Cas9-expressing Jurkat cells. In words: Cell viability after UBR2 knock-out by sgRNA and L-asparaginase treatment, Jurkat. The note with it: 100 U/L L-asparaginase, 48 h, versus sgAAVS1, FIG. 4A. The class given is cell-based, human. As to the method: (§1) Cas9-expressing Jurkat cells or T-ALL cells (CCRF-CEM) were treated with sgRNA that specifically knocked-out UBR2 (sgUBR2 #3, […], SEQ ID NO: 3) or control sgRNA directed against the safe harbor control locus AAVS1 (sgAAVS1, 5′-[…]-3′, SEQ ID NO: 4), and after knock-out of UBR2 cells were incubated under cell-culture conditions with 100 U/L L-asparaginase (Asp) or PBS as control agent (Vehicle). Cell viability was analysed by Trypan blue exclusion after 48 h of incubation.
(§2) FIG. 4A for Jurkat cells, FIG. 4B for the T-ALL cells depict the cell viability normalized to the cell viability for Vehicle. […] P-values reflect the comparison of control inhibitor (AAVS1) and inhibitor of UBR2 (sgUBR2), calculated using a two-way ANOVA with Sidak's adjustments for multiple comparisons.

In data set [2] the test system is T-ALL cells (CCRF-CEM). In words: Cell viability after UBR2 knock-out by sgRNA and L-asparaginase treatment, CCRF-CEM. It counts as cell-based, human. The note with it: 100 U/L L-asparaginase, 48 h, versus sgAAVS1, FIG. 4B. As to the method: as §1, §2

As for “sgUBR2 #3: sgRNA that specifically knocked-out UBR2, GAAACTTGAAATAGTCTAAA, SEQ ID NO: 3 (listed as DNA, chemistry not given here)”, the “effect on sensitivity for L-asparaginase (cell viability normalized to Vehicle)” value in data set [1] and in data set [2] was “increased the sensitivity” each time.

Source of the values: US20250195628A1, “ANALYTICAL METHOD AND THERAPEUTICAL AGENT FOR USE IN COMBINATION WITH L-ASPARAGINASE IN TUMOUR THERAPY” (Medizinische Hochschule Hannover, priority 2022, published 2025).
